One data set relates to HL-60. In words: MTT cytotoxicity, HL-60. It is filed as cell-based. The note with it: HL-60, human acute promyelocytic leukemia, 12 h exposure, mean±SD of three trials. Here is the method:
(§1) The cytotoxicity of Tecomaphorbide was tested against various cultured cell lines. Cells were exposed to various concentrations of Tecomaphorbide (ranging from 0.0 to 4.0 μM) for 12 h. Subsequently, the exposed cells were incubated with MTT reagent for 4 h and the developed color was analyzed spectrophotometrically. IC50 was determined from the sigmoidal curve of blotting percentage of cell viability versus the logarithm of concentration in μM using Graphpad Prism 6 program. The determined values summarized in Table 2 are the mean±SD value obtained from three independent trials.

In another data set the test system is PC-3. In words: MTT cytotoxicity, PC-3. It is filed as cell-based. The note with it: PC-3, human prostate adenocarcinoma, 12 h exposure, mean±SD of three trials. The method, then: as §1
The next data set concerns MCF-7. The experiment in a line: MTT cytotoxicity, MCF-7. The note with it: MCF7, MCF-7, human breast adenocarcinoma, 12 h exposure, mean±SD of three trials. It is filed as cell-based. Here is the method: as §1
Another data set deals with Jurkat. The experiment in a line: MTT cytotoxicity, Jurkat. It is filed as cell-based. The settings on record: human acute T cell leukemia, 12 h exposure, mean±SD of three trials. The method, then:
as §1

The test system of data set [1] is T-Cell Acute lymphocytic leukemia cell line (Jurkat). In words: Apoptosis in Jurkat cells (FIG. 2). It is filed as cell-based, human. The source says: (§2) FIG. 2 is a bar graph summarizing the effect of compound Tecomaphorbide on apoptosis in human acute leukemia T-cells (Jurkat cells) and normal primary T-cells.
The next data set concerns normal primary T-cells. In words: Apoptosis in normal primary T-cells (FIG. 2). It is filed as cell-based, human.
Description: as §2

The test system of another data set is Caco-2. The experiment in a line: MTT cytotoxicity, Caco-2. It is filed as cell-based. The settings on record: Caco-2, human colorectal adenocarcinoma, 12 h exposure, mean±SD of three trials. Here is the method:
as §1

A further data set concerns MOLM-13. In words: MTT cytotoxicity, MOLM-13. The format is cell-based. The settings on record: MOLM-13, human acute monocytic leukemia, 12 h exposure, mean±SD of three trials. The method, then: as §1
For a further data set, the system named is MV4-11. The experiment in a line: MTT cytotoxicity, MV4-11. The settings on record: MV4-11, human B myelomonocytic leukemia, 12 h exposure, mean±SD of three trials. The format is cell-based. The method, then: as §1
Another data set deals with U937. In words: MTT cytotoxicity, U937. The note with it: U-937, U937, human histiocytic lymphoma, 12 h exposure, mean±SD of three trials. The format is cell-based. Here is the method:
as §1

A further data set has as its system K562. The experiment in a line: MTT cytotoxicity, K562. The format is cell-based. The settings on record: K562, human chronic myelogenous leukemia, 12 h exposure, mean±SD of three trials. The method, then:
as §1

`C=Cc1c(C=O)c2cc3nc(c4c5[nH]c(cc6nc(cc1[nH]2)C(C)=C6CC)c(C)c5C(=O)C4C(=O)OCC)C(CCC(=O)OC)C3C` (centres unmarked) [Tecomaphorbide]: the IC50 in the data set with HL-60 was 460 ± 110 nM; with PC-3, 1940 ± 350 nM; with MCF-7 it was 2660 ± 480 nM; in the data set with Jurkat, 1210 ± 240 nM; with Caco-2 it was 2830 ± 620 nM; in the data set with MOLM-13 it was 580 ± 170 nM. Also, the IC50 in the data set on MV4-11 is 620 ± 140 nM; in the data set on U937 it was 1380 ± 320 nM; with K562, 1530 ± 190 nM. The figures for the effect on apoptosis entry (in data set [1]; in the data set on normal primary T-cells) were “able to induce apoptosis” and “minimal impact”, respectively.

For the origin of these results see patent US11124499B2, “Pharmaceutical composition derived from Tecoma plant and a method for treating cancer” (National Guard Health Affairs, priority 2018, dated 2021).
